The source of these data is patent US10968192B2, “Crystalline solid forms of N-(1-((2-(dimethylamino)ethyl)amino)-2-methyl-1-oxopropan-2-yl)-4-(4-(2-methyl-5-((2S,3R,4R,5S,6R)-3,4,5-trihydroxy-6-(methylthio)tetrahydro-2H-pyran-2-yl)benzyl)phenyl)butanamide and methods of their synthesis” (Lexicon Pharmaceuticals, Inc., priority 2018, dated 2021).

Data set [1] addresses T1, sodium glucose co-transporter type 1 (SGLT1) (Homo sapiens, UniProt P13866).
T1 sequence (P13866 1-664): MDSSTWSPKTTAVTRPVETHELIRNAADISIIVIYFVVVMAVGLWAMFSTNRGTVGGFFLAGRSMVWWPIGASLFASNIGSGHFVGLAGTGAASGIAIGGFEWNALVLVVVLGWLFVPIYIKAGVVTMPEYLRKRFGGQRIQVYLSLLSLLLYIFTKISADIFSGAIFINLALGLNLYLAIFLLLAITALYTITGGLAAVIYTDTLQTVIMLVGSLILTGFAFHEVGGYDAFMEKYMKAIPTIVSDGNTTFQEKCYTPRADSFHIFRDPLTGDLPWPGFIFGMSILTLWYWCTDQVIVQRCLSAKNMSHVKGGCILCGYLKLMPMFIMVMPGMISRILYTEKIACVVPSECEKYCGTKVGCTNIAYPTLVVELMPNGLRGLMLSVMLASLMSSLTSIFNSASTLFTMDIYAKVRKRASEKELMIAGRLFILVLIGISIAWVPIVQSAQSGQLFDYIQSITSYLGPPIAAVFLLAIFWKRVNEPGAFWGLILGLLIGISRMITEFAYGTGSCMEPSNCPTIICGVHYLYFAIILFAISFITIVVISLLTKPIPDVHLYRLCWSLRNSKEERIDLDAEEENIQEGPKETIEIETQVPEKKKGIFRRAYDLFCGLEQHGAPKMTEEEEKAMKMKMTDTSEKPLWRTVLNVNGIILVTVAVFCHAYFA
Conditions: qualitative statement; see U.S. Pat. No. 9,200,025, Examples 6.39, 6.40; cited from earlier work.

Data set [2] can be described thus: Polymorphism studies of the L-proline co-crystal: solid-form stability upon drying. The data set is classed as physicochemical. An excerpt:
Significant further research directed at discovering useful and stable solid forms of the compound finally led to the discovery of a few crystalline forms of the free base, solvates, and co-crystals. […] Although polymorphism studies led to the identification of eleven different Raman spectroscopic classes of the co-crystal, three were dominated by amorphous material and most were unstable (i.e., lose their crystallinity or convert to other forms) upon drying. […] The suspension was filtered and the wet-cake was dried. […] (DSC peak 147° C.). The solid was used as seeds to prepare 0.7 g more Form II polymorph of the L-proline cocrystal in a similar fashion.

For the compound `CS[C@H]1O[C@@H](c2ccc(C)c(Cc3ccc(CCCC(=O)NC(C)(C)C(=O)NCCN(C)C)cc3)c2)[C@H](O)[C@@H](O)[C@@H]1O` [Compound I, N-(1-((2-(dimethylamino)ethyl)-amino)-2-methyl-1-oxopropan-2-yl)-4-(4-(2-methyl-5-((2S,3R,4R,5S,6R)-3,4,5-trihydroxy-6-(methylthio)tetrahydro-2H-pyran-2-yl)benzyl)phenyl)butanamide], in data set [1], the “inhibition of sodium glucose co-transporter type 1 (SGLT1)” value was “potent inhibitor”.

For the compound `CS[C@H]1O[C@@H](c2ccc(C)c(Cc3ccc(CCCC(=O)NC(C)(C)C(=O)NCCN(C)C)cc3)c2)[C@H](O)[C@@H](O)[C@@H]1O` [Form I, N-(1-((2-(dimethylamino)ethyl)-amino)-2-methyl-1-oxopropan-2-yl)-4-(4-(2-methyl-5-((2S,3R,4R,5S,6R)-3,4,5-trihydroxy-6-(methylthio)tetrahydro-2H-pyran-2-yl)benzyl)phenyl)butanamide L-proline], in data set [2] (wet cake from ethanol, dried at 50° C.), the “solid-form conversion upon drying” value is recorded as “converted to Form II upon drying”.

In the case of `CS[C@H]1O[C@@H](c2ccc(C)c(Cc3ccc(CCCC(=O)NC(C)(C)C(=O)NCCN(C)C)cc3)c2)[C@H](O)[C@@H](O)[C@@H]1O` [Form II, N-(1-((2-(dimethylamino)ethyl)-amino)-2-methyl-1-oxopropan-2-yl)-4-(4-(2-methyl-5-((2S,3R,4R,5S,6R)-3,4,5-trihydroxy-6-(methylthio)tetrahydro-2H-pyran-2-yl)benzyl)phenyl)butanamide L-proline], the “solid-form stability (retains crystallinity / does not convert to other forms upon drying)” value in data set [2] (L-proline co-crystal forms, polymorphism studies) is listed as “stable enough to be useful in pharmaceutical formulations”.
